Assays:
L-1210 leukemia = assay: first experiment: L-1210 leukemia in mice, T/C percentage and long term survival; assay type: in vivo; settings: for Survival after 60 days: survivors/animals; for antitumor activity (in words): versus c-DDP and ligand alone
Procedure: Pt(DMSO)Cl2 ].2HCl.H2 O (coded BBR 1651), water soluble, and cis-[1,4-bis-[2-(2-hydroxyethylamino)ethylamino]-5,8-dihydroxy-9,10-anthracenedione.PtCl2 ].2HCl.H2 O (coded BBR 1734) are tested in comparison with equimolecular dosages of 1,4-bis-[2-(2-hydroxyethylamino)ethylamino]-5,8-dihydroxy-9,10-anthracenedione (DHAQ.2HCl) and with c-DDP dosed at 7 mg/kg, against L-1210 leukemia in mice. Groups of 10 animals, treated with intraperitoneal injections of […] L-1210 cells, have been used at each dosage level, evaluating T/C percentage and long term survival, i.e. more than sixty days.
(§1) T/C percentage represents the percentual ratio of the mean survival time of the treated animals in comparison with the mean survival time of the control animals according to the methods described in "Anthracycline antibiotics" H. S. E. R Rhadem Edit., Academic Press, 1982.
(§2) LTS represents number of long-term (over 60 days) surviving animals with no pathologic episodes (i.e. cured animals).
A percentage of T/C over 120 indicates antitumoral activity; a percentage of T/C under 85 indicates toxicity.

[1] = system: L-1210 leukemia sensitive to c-DDP; assay: second experiment: L-1210 leukemia sensitive to c-DDP, T/C, LTS, TOX; assay type: in vivo, mice; settings: for T/C percentage: L-1210 leukemia (sensitive to Pt), c-DDP 7 mg/kg, BBR 1734 1.55 mg/kg, BBR 1735 8 mg/kg; for percentage of survivors at 60 days: 8.7.10^-6 mol/kg; for TOX (3): toxic deaths
Source text: as §1, §2
(§3) (1) T/C: Mean survival time of treated mice/mean survival time of control
(untreated) mice × 100.
Mean survival time of treated mice is referred to dying animals only.
(2) LTS: Longterm survivors (>60 days), i.e. cured animals. Mean survival
(§4) (3) TOX: Toxic deaths are referred to animals dead before control animals
(§5) or to animals showing macroscopic toxic symptoms without tumor.
The data reported in Table 2 are the means of two subsequent experiments.

[2] = system: c-DDP resistant L-1210 leukemia; assay: c-DDP resistant L-1210 leukemia, T/C, LTS, TOX; assay type: in vivo, mice; settings: for activity (in words): animals injected with cis-platin resistant leukemia cells; for TOX (3): toxic deaths
Source text: as §1, §3
(untreated) mice × 100. Mean survival time of treated mice is
referred to dying animals only. N.ev.: not evaluable as consequence of th
(2) LTS: Longterms survivors (>30 days), i.e. cured animals.
as §4, §5

[3] = system: genito-urinary tumors, head and neck cancer, osteogenic sarcoma; settings: human, in vivo; cited from earlier work
[4] = Acute toxicity (LD50) in mouse; assay type: in vivo; settings: intraperitoneal route
[5] = body weight, kidney weight and ureic nitrogen (nephrotoxicity) at LD50 doses; assay type: in vivo, mouse; settings: i.v.; for general toxicity / body weight (in words) / renal toxicity (in words): LD50 doses; for % Δ of the body weight / Final body weight / Kidney weight / Kidney weight g/100 of body weight / Initial body weight / Ureic Nitrogen: dose corresponding to respective LD50; for Initial body weight: before treatment; for Ureic Nitrogen: urea content
Procedure: The percent decrease of the body weight, the kidney weight and the ureic nitrogen excretion were determined for each treated group. The increase of kidney weight and the increase of ureic plasma content were assumed as nephrotoxic index of the compounds (see for example O. Tofanetti et al., "Tumori", 69, 105, 1983).

[6] = 21 × 10^-6 moles/kg (c-DDP 7.00 mg/kg)
[7] = 21 × 10^-6/kg (c-DDP 7.1 mg/kg)
[8] = 29.6 × 10^-6/kg (c-DDP 10.0 mg/kg)
[9] = 1.93 × 10^-6 moles/kg (BBR 1734 1.55, BBR 1651 1.85, DHAQ.2HCl 1.00 mg/kg)
[10] = 3.86 × 10^-6 moles/kg (BBR 1734 3.10, BBR 1651 3.70, DHAQ.2HCl 2.00 mg/kg)
[11] = 7.73 × 10^-6 moles/kg (BBR 1734 6.20, BBR 1651 7.40, DHAQ.2HCl 4.00 mg/kg)
[12] = 1.93 × 10^-6 moles/kg (DHAQ.2HCl 1.0, BBR 1651 1.85 mg/kg)
[13] = 3.86 × 10^-6 moles/kg (DHAQ.2HCl 2.0, BBR 1651 3.7 mg/kg)
[14] = 7.73-8.68 × 10^-6 moles/kg (DHAQ.2HCl 4.0-4.5, BBR 1651 7.4-8.32 mg/kg)
[15] = 12.93 × 10^-6 moles/kg (DHAQ.2HCl 6.7, BBR 1651 12.40 mg/kg)
[16] = 19.3 × 10^-6 moles/kg (DHAQ.2HCl 10.0, BBR 1651 18.5 mg/kg)
[17] = 19.3 × 10^-6/kg (BBR 1651 18.5 mg/kg)
[18] = 28.95 × 10^-6/kg (BBR 1651 27.75 mg/kg)
[19] = 5.79 × 10^-6/kg (DHAQ-2HCl 3.0 mg/kg)
[20] = 8.68 × 10^-6/kg (DHAQ-2HCl 4.5 mg/kg)

Structure (SMILES): N.N.[Cl][Pt][Cl] [c-DDP, cis-diaminodichloroplatinum^II]
- % T/C (L-1210 leukemia; [6]): 200%
- Survival after 60 days (L-1210 leukemia; [6]): 0/10
- LTS (2) (>60 days) ([1]; 21 × 10^-6 moles/kg (c-DDP 7.1 mg/kg)): 0/20
- T/C (1) % ([1]; 21 × 10^-6 moles/kg (c-DDP 7.1 mg/kg), range in parenthesis): 193 (187-200) %
- T/C (1) % ([1]; 21 × 10^-6 moles/kg (c-DDP 7.1 mg/kg), range in parenthesis, listed as cis-platin): 193%
- LTS (2) (>60 days) ([1]; 29.2 × 10^-6 moles/kg (c-DDP 10.0 mg/kg)): 1/20
- T/C (1) % ([1]; 29.2 × 10^-6 moles/kg (c-DDP 10.0 mg/kg), range in parenthesis): 93 (87-100) %
- T/C percentage [1]: ~200
- LTS (2) (>30 days) [2, 7]: 0/10
- T/C (1) % [2, 7]: 100%
- LTS (2) (>30 days) [2, 8]: 0/10
- T/C (1) % [2, 8]: 100%
- activity (in words) [2]: uneffective
- clinical activity (in words) [3]: activity is well demonstrated
- serious side effects (in words) [3]: gastrointestinal (nausea and vomiting often severe and prolungated), renal (dose-limiting renal insufficiency), hematological, neurological (ototoxicity) complications

Structure (SMILES): CS(C)=O.CS(C)=O.Cl.Cl.O.O=C1c2c(O)ccc(O)c2C(=O)c2c(NCCNCCO)ccc(NCCNCCO)c21.[Cl][Pt][Cl] [BBR 1651, cis-[1,4-bis-[2-(2-hydroxyethylamino)ethylamino]-5,8-dihydroxy-9,10-anthracenedione. Pt(DMSO)Cl2].2HCl.H2 O]
- % T/C (L-1210 leukemia; [9]): 195%
- Survival after 60 days (L-1210 leukemia; [9]): 0/10
- % T/C (L-1210 leukemia; [10]): 220%
- Survival after 60 days (L-1210 leukemia; [10]): 1/10
- Survival after 60 days (L-1210 leukemia; [11]): 7/10
- antitumor activity (in words) (L-1210 leukemia): good activities with better results than those obtained using the known c-DDP and the aminoanthracenedione ligand alone
- T/C ([1]; 1.39.10^-6 g/atom of Pt): 200
- LTS (2) (>60 days) [1, 12]: 0/10
- T/C (1) % [1, 12]: 200%
- LTS (2) (>60 days) [1, 13]: 1/10
- T/C (1) % [1, 13]: 221%
- LTS (2) (>60 days) [1, 14]: 15/20
- percentage of survivors at 60 days [1]: 90%
- LTS (2) (>60 days) [1, 15]: 9/10
- LTS (2) (>60 days) [1, 16]: 9/10
- longterms survivors (>60 days; i.e. cured animals) ([1]; equal platinum content): 9
- increase of the dead animals before control animals ([1]; in words): did not cause any increase of the dead animals before control animals
- activity compared with c-DDP (in words) ([1]; mouse, in vivo): extremely more active than the known c-DDP
- TOX (3) [1, 12]: 0/10
- TOX (3) [1, 13]: 0/10
- TOX (3) [1, 14]: 0/20
- TOX (3) [1, 15]: 0/10
- LTS (2) (>30 days) [2, 17]: 3/10
- T/C (1) % [2, 17]: 186%
- LTS (2) (>30 days) [2, 18]: 4/10
- activity (in words) [2]: active drug
- TOX (3) [2, 17]: 0/10
- TOX (3) [2, 18]: 1/10

Structure (SMILES): Cl.Cl.O.O=C1c2ccccc2C(=O)c2c3ccc(c21)NCC[NH+](CCO)[Pt-2]([Cl])([Cl])[NH+](CCO)CCN3 (stereo not drawn) [BBR 1735, cis-[1,4-bis-[2-(2-hydroxyethylamino-ethyl)-amino]-9,10-anthracenedione.PtCl2].2HCl.H2 O]
- T/C percentage [1]: ~200
- Acute toxicity (LD50) [4]: 30.0 mg/kg
- general toxicity / body weight (in words) [5]: general toxicity as indicated by the decrease of the body weight
- renal toxicity (in words) [5]: do not impair the renal excretory function and/or change the relative kidney weight
- % Δ of the body weight [5]: -5.4%
- Final body weight [5]: 33.1 ± 1.103
- Kidney weight [5]: 0.428 ± 0.02
- Kidney weight g/100 of body weight [5]: 1.293 ± 0.042 g/100 of body weight
- Initial body weight [5]: 34.9 ± 0.857
- Ureic Nitrogen [5]: 14.88 ± 0.565 100 mg/ml of plasma

Structure (SMILES): O=C1c2c(O)ccc(O)c2C(=O)c2c(NCCNCCO)ccc(NCCNCCO)c21 [DHAQ.2HCl, 1,4-bis-[2-(2-hydroxyethylamino)ethylamino]-5,8-dihydroxy-9,10-anthracenedione]
- % T/C (L-1210 leukemia; [9]): 185%
- % T/C (L-1210 leukemia; [10]): 214%
- Survival after 60 days (L-1210 leukemia; [10]): 0/10
- Survival after 60 days (L-1210 leukemia; [11]): 2/10
- % T/C (L-1210 leukemia; 7.73 × 10^-6 moles/kg (DHAQ.2HCl 4.00 mg/kg)): 235%
- LTS (2) (>60 days) [1, 12]: 0/10
- T/C (1) % [1, 12]: 185%
- LTS (2) (>60 days) [1, 13]: 0/10
- T/C (1) % [1, 13]: 214%
- T/C (1) % ([1]; 7.73-8.68 × 10^-6 moles/kg (DHAQ.2HCl 4.0-4.5 mg/kg), range in parenthesis): 302 (235-369) %
- LTS (2) (>60 days) [1, 14]: 8/20
- percentage of survivors at 60 days [1]: 10%
- T/C (1) % ([1]; 12.93 × 10^-6 moles/kg (DHAQ.2HCl 6.7 mg/kg)): 262%
- LTS (2) (>60 days) [1, 15]: 4/10
- T/C (1) % ([1]; 19.3 × 10^-6 moles/kg (DHAQ.2HCl 10.0 mg/kg)): 231%
- LTS (2) (>60 days) [1, 16]: 1/10
- increase of death rate in comparison with the control animals ([1]; Higher doses of DHAQ): up to 90%
- TOX (3) [1, 12]: 0/10
- TOX (3) [1, 13]: 0/10
- TOX (3) [1, 14]: 2/20
- TOX (3) [1, 15]: 5/10
- TOX (3) [1, 16]: 9/10
- LTS (2) (>30 days) [2, 19]: 1/10
- T/C (1) % [2, 19]: 145%
- LTS (2) (>30 days) [2, 20]: 2/10
- T/C (1) % [2, 20]: 168%
- TOX (3) [2, 19]: 0/10
- TOX (3) [2, 20]: 0/10

Structure (SMILES): Cl.Cl.O.O=C1c2c(O)ccc(O)c2C(=O)c2c3ccc(c21)NCC[NH+](CCO)[Pt-2]([Cl])([Cl])[NH+](CCO)CCN3 (stereo not drawn) [BBR 1734, cis-[1,4-bis-[2-(2-hydroxyethylamino)ethylamino]-5,8-dihydroxy-9,10-anthracenedione.PtCl2].2HCl.H2 O]
- % T/C (L-1210 leukemia; [9]): 200%
- Survival after 60 days (L-1210 leukemia; [9]): 0/10
- % T/C (L-1210 leukemia; [10]): 224%
- Survival after 60 days (L-1210 leukemia; [10]): 1/10
- Survival after 60 days (L-1210 leukemia; [11]): 7/10
- antitumor activity (in words) (L-1210 leukemia): good activities with better results than those obtained using the known c-DDP and the aminoanthracenedione ligand alone
- T/C percentage [1]: ~200
- Acute toxicity (LD50) [4]: 22.9 mg/kg
- general toxicity / body weight (in words) [5]: general toxicity as indicated by the decrease of the body weight
- renal toxicity (in words) [5]: do not impair the renal excretory function and/or change the relative kidney weight
- % Δ of the body weight [5]: -20.4%
- Final body weight [5]: 28.4 ± 0.775
- Kidney weight [5]: 0.362 ± 0.012
- Kidney weight g/100 of body weight [5]: 1.282 ± 0.036 g/100 of body weight
- Initial body weight [5]: 34.2 ± 0.731
- Ureic Nitrogen [5]: 14.85 ± 0.866 100 mg/ml of plasma
